Series [1] can be described thus: Intrinsic clearance in liver microsomes, rat. The class given is in vitro ADME. The conditions noted are these: rat, liver microsomes, pH 7.4, rat liver microsomes, read-out: Half-Life (T1/2) (min), Rat. The procedure: From stock solution of compound on 10 mM DMSO, a working solution of 0.1 mM is prepared by diluting the compound in DMSO. 6.25 μL of a 20 mg/mL solution of microsomes in PBS pH 7.4 buffer is added to 216.25 μL PBS pH 7.4 buffer (final microsome concentration—0.5 mg/mL). 25 μL of 10 mM solution of NADPH in PBS pH 7.4 buffer is added to the incubations (final NADPH concentration—1 mM). The mixture is pre-warmed to 37° C. for 10 minutes. 2.5 μL of test compound working solution is added (final compound concentration—1 μM with 1% DMSO). Aliquots of 30 μL are taken from the reaction solution at 0.5, 5, 15, 30 and 60 minutes. The reaction was stopped by the addition of 5 volumes of cold acetonitrile with IS (100 nM alprazolam, 200 nM caffeine and 100 nM tolbutamide). Samples were centrifuged at 3, 220 g for 40 minutes. Aliquots of 100 μL of the supernatant are mixed with 100 μL of ultra-pure H2O and used for LC-MS/MS analysis. The percent compound remaining at each time point is calculated with respect to that of the 0.5 min sample. The data are analysed to calculate half-life. Control experiments are run without NADPH and blank samples are prepared using DMSO without the test compound.
A 50 mM stock solution (in DMSO) is prepared for the compound. From the stock solution, a working solution of 0.5 mM is prepared by diluting the compound in DMSO. This concentration of working solution is prepared considering a final concentration of 1 uM with 0.1% DMSO. The compound (1 μL of working solution) is spiked in PBS with pH 7.4 ([…]) at a concentration of 1 μM. Subsequently, 110 μL of 10 mM NADPH is added (as a co-factor). The sample is incubated at 37° C. for 15 min. Following this, pre-warmed liver microsomes (27.5 μL; final protein conc. 0.5 mg/mL) are added. The samples are then incubated at 37° C. Aliquots of samples are withdrawn at 0, 5, 15, 30, 45 and 60 min. The reaction is stopped by using chilled acetonitrile containing internal standard. The samples are centrifuged, and the supernatants analysed by LC-MS/MS. The percent compound remaining at each time point is calculated with respect to that of the 0 min sample. The data are then analysed to calculate half-life and intrinsic clearance (CLint). Control experiments are run without NADPH and blank samples are prepared using DMSO without the test compound.

Another series has as its target BRD4 BD2 (Homo sapiens (Human), UniProt O60885). Briefly: NanoBRET bromodomain assay, NanoLuc-BRD4-BD2 fusion in HEK293 cells.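 For all read-outs here: tracer displacement BRET read in transfected cells after 2 h compound exposure at 37 °C, signal in milliBRET units corrected against no-tracer background wells.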 The conditions noted are these: for Fold selectivity: IC50 for BRD4 BD1 divided by IC50 for BRD4 BD2, qualitative if an IC50 is at the upper limit; for IC50: BRD4 BD2 (IC50), NanoBRET, HEK293 cells, top concentration 10 μM.
Series [2] is described as follows: Plasma stability assay, rat plasma. In kind it is in vitro ADME. The conditions noted are these: Method 2 (10 μM). The procedure:
From stock solution of compound in 10 mM DMSO, a working solution of 1 mM is prepared by diluting the compound in DMSO. To 398 μL of plasma pre-warmed at 37° C. for 15 minutes), 2 μL of working solution of compound is added, resulting in a final concentration of 5 μM (0.5% DMSO) for the compound. The sample is then incubated at 37° C. Aliquot is withdrawn at specified time-points (0, 15, 30, 60 and 120 mins). The reaction is stopped by addition of 450 μL cold acetonitrile containing internal standard (IS). […] Aliquots of the supernatant is analysed using LC-MS/MS. The percent remaining of the compound at each time point is calculated with respect to the control sample (0 min time-point).
A working solution of compound (500 μM) is prepared in DMSO (100%). To 735 μL of plasma, 15 μL of working solution of compound is added—resulting in a final concentration of 10 μM (2% DMSO) for the compound. The sample is then incubated at 37° C. Aliquot is withdrawn at time-points—0, 15, 30, 60, 90 and 120 mins. The reaction is stopped by using chilled acetonitrile containing internal standard (IS). The samples are centrifuged and the supernatants analyzed using LC-MS/MS. The percent remaining of the compound at each time point is calculated with respect to the control sample (0 min time-point).

Series [3] can be described thus: Sprague-Dawley rat pharmacokinetics, IV and PO cassette dosing. In kind it is in vivo. The conditions noted are these: for IV T1/2 / PO F: Method 1; for PO F: PO 5 mg/kg. The procedure: Compounds were formulated in 5% DMSO, 40% PEG-400, 55% Milli-Q water at a concentration of 0.2 mg/mL for IV and at 0.5 mg/mL for PO. Two male Sprague-Dawley rats per arm were dosed with up to 5 compounds in cassette mode, which each compound being dosed at 1 mg/kg IV and 5 mg/kg PO. Blood was sampled at various timepoints and plasma isolated. 50 μL of plasma with 5 μL of blank Sprague-Dawley rat plasma were added to 200 μL of acetonitrile containing IS mixture. The samples were vortexed for 30 s. After centrifugation at 4 degrees Celsius, 3900 rpm for 15 min, the supernatant was diluted 3 times with water. 20 μL of diluted supernatant was injected into the LC/MS/MS system for quantitative analysis and concentration of analyte determined by comparison with matrix matched standard curve. WinNonlin (Phoenix™, version 8.3) or other similar software may be used for pharmacokinetic calculations.

The target of the next series is BRD4 BD1 (Homo sapiens (Human), UniProt O60885). Briefly: NanoBRET bromodomain assay, NanoLuc-BRD4-BD1 fusion in HEK293 cells. The class given is cell-based. The note with it: top concentration 10 μM. For orientation: In BRET a luciferase serves as donor, and the signal depends on an acceptor being close.

Read-outs that look alike come from different tables or passages of the source.

Description for BRD4 BD2: HEK293 cells were transfected using NanoLuc-BRD4-BD1 or NanoLuc-BRD4-BD2 fusion vectors and incubated at 37° C. in an atmosphere of 5% CO2 for 20-24 hours. The transfected cells were then dispensed into 96-well plates using 90 μl cell suspension per well containing 2×10^5 cells/mL in Opti-MEM and 1× final concentration of tracer. 90 μL per well of cell suspension without tracer was also dispensed into at least 3 wells as “No tracer control samples” for background correction. Serially diluted test compounds were prepared at 1000× concentration in DMSO and further diluted to 10× concentration in Opti-MEM. […] Plates were then incubated at 37° C. +5% 002 incubator for 2 hours. […] Donor emission (450 nm) and acceptor emission (610 nm) were measured using PHERAstar (BMG LabTech). For data analysis, the raw BRET ratio was generated and converted to milliBRET units with background correction using the formula: [(Acceptorsample/Donorsample−(Acceptorno tracer control/Donorno tracer control)]×1000. The mBU data was plotted as a function of compound concentration and IC50s for BRET assay were determined by nonlinear regression analysis of concentration response curves using the Collaborative Drug Discovery Vault software. The fold-selectivity was calculated by dividing the IC50 for BRD4 BD1 by the IC50 for BRD4 BD2.

Take `CNC(=O)c1[nH]c(C(=O)NC2COC2)cc1OC(C)c1ccc(Cl)cc1` (single isomer, unassigned) [Example 31, 3-(1-(4-chlorophenyl)ethoxy)-N^2-methyl-N^5-(oxetan-3-yl)-1H-pyrrole-2,5-dicarboxamide]: the half-life at 1 μM in series [1] (Method 1) was above 60 min. Besides, at BRD4 BD2, the Fold selectivity entry was “XX (Fold >50 and ≤200)”. The “Plasma Stability (% remaining at 120 minutes), Rat” value in series [2] was 81%. Further, the “IV T1/2” value in series [3] (IV 1 mg/kg) came out at 36 min. The “PO F” value in series [3] was determined as 15%.

Usually IC50 stands for the concentration needed to halve the response being measured. A higher IC50 goes with weaker potency. Turning to `CCNC(=O)c1cc(OC(C)c2ccc(I)cc2)c(C(=O)NC)[nH]1` (single isomer, unassigned) [Example 51, N^5-ethyl-3-(1-(4-iodophenyl)ethoxy)-N^2-methyl-1H-pyrrole-2,5-dicarboxamide], the half-maximal inhibitory concentration (IC50) on BRD4 BD1 is at least 10 µM; at BRD4 BD2 it was below 50 nM. Moreover, the half-life at 1 μM in series [1] (Method 2) is above 60 min. Also, at BRD4 BD2, the Fold selectivity entry is “XXX (Fold >200)”. For the same compound, the “Plasma Stability (% remaining at 120 minutes), Rat” value in series [2] is listed as 93%.

As for `CNC(=O)c1[nH]c(C(=O)NC2COC2)cc1OC(C)c1ccc(Cl)cc1F` (single isomer, unassigned) [Example 39, 3-(1-(4-chloro-2-fluorophenyl)ethoxy)-N^2-methyl-N^5-(oxetan-3-yl)-1H-pyrrole-2,5-dicarboxamide], on BRD4 BD1, the IC50 was at least 10 µM. Moreover, the half-life at 1 μM in series [1] (Method 1) is above 60 min. For the same compound, on BRD4 BD2, the IC50 was 50 to 200 nM; the Fold selectivity entry is “XX (Fold >50 and ≤200)”. For the same compound, the “Plasma Stability (% remaining at 120 minutes), Rat” value in series [2] came to 93%. The “PO F” value in series [3] is listed as 11%. For the same compound, the half-life in series [3] (male, Sprague-Dawley, rat, plasma, iv, 1 mg/kg, IV 1 mg/kg, Method 1, read-out: IV T1/2 (converted)) was 30 min.

For the compound `CNC(=O)c1[nH]c(-c2ncc(C)[nH]2)cc1O[C@@H](C)c1ccccc1F` [Example 68, (S)-3-(1-(2-fluorophenyl)ethoxy)-N-methyl-5-(5-methyl-1H-imidazol-2-yl)-1H-pyrrole-2-carboxamide], the IC50 on BRD4 BD1 is at least 10 µM; on BRD4 BD2, below 50 nM. In addition, the half-life at 1 μM in series [1] (Method 2) came out at 23 min. For the same compound, on BRD4 BD2, the Fold selectivity result is “XXX (Fold >200)”. The “Plasma Stability (% remaining at 120 minutes), Rat” value in series [2] was 75%.

As to `CNC(=O)c1[nH]c(C(=O)NC(C)C)cc1O[C@@H](C)c1ccc(Cl)cc1` [Example 61, (S)-3-(1-(4-chlorophenyl)ethoxy)-N^5-isopropyl-N^2-methyl-1H-pyrrole-2,5-dicarboxamide], the IC50 at BRD4 BD1 is at least 10 µM. Moreover, the half-life at 1 μM in series [1] (Method 2) is above 60 min. Moreover, at BRD4 BD2, the IC50 lay in the range of 50 to 200 nM; the Fold selectivity result was “XX (Fold >50 and ≤200)”. In addition, the “Plasma Stability (% remaining at 120 minutes), Rat” value in series [2] turned out to be 81%.

Take `CNC(=O)c1[nH]c(C(=O)NC2CCC2)cc1OC(C)c1ccc(Cl)cc1F` (single isomer, unassigned) [Example 35, 3-(1-(4-chloro-2-fluorophenyl)ethoxy)-N^5-cyclobutyl-N^2-methyl-1H-pyrrole-2,5-dicarboxamide]: the IC50 at BRD4 BD1 was at least 10 µM; on BRD4 BD2 it was below 50 nM. The half-life at 1 μM in series [1] (Method 1) worked out at 46 min. At BRD4 BD2, the Fold selectivity result was “XXX (Fold >200)”. Further, the “Plasma Stability (% remaining at 120 minutes), Rat” value in series [2] amounted to 67%. Besides, the “IV T1/2” value in series [3] (IV 1 mg/kg) came out at 30 min. The “PO F” value in series [3] came out at 65%.

`CNC(=O)c1[nH]c(C(=O)NC2COC2)cc1OC(C)c1ccccc1F` (single isomer, unassigned) [Example 47, 3-(1-(2-fluorophenyl)ethoxy)-N^2-methyl-N^5-(oxetan-3-yl)-1H-pyrrole-2,5-dicarboxamide]: on BRD4 BD1, the IC50 is at least 10 µM. Moreover, in series [1] (Method 2), the half-life at 1 μM was above 60 min. Also, at BRD4 BD2, the IC50 lay within 50 to 200 nM; the Fold selectivity result is “XX (Fold >50 and ≤200)”. In addition, the “Plasma Stability (% remaining at 120 minutes), Rat” value in series [2] was determined as 76%.

`CNC(=O)c1[nH]c(-c2ncc(C)[nH]2)cc1O[C@@H](C)c1ccc(Cl)cc1` [Example 69, (S)-3-(1-(4-chlorophenyl)ethoxy)-N-methyl-5-(5-methyl-1H-imidazol-2-yl)-1H-pyrrole-2-carboxamide] gave an IC50 on BRD4 BD1 of at least 10 µM. The half-life at 1 μM in series [1] (Method 2) was found to be 21 min. At BRD4 BD2, the IC50 is below 50 nM and the Fold selectivity entry is on record as “XXX (Fold >200)”. Besides, in series [2], the “Plasma Stability (% remaining at 120 minutes), Rat” value is on record as 83%.

As for `CNC(=O)c1[nH]c(C(=O)NC2CCC2)cc1OC(C)c1ccc(Cl)cc1` (single isomer, unassigned) [Example 27, 3-(1-(4-chlorophenyl)ethoxy)-N^5-cyclobutyl-N^2-methyl-1H-pyrrole-2,5-dicarboxamide], the results for the IC50 against BRD4 BD1 and on BRD4 BD2 were at least 10 µM and below 50 nM, respectively. Moreover, in series [1] (Method 1), the half-life at 1 μM was found to be 47 min. Moreover, the Fold selectivity result on BRD4 BD2 is “XXX (Fold >200)”. Also, the “Plasma Stability (% remaining at 120 minutes), Rat” value in series [2] is 47%. Further, the “IV T1/2” value in series [3] (IV 1 mg/kg) was 24 min. Further, the “PO F” value in series [3] was 47%.

At BRD4 BD1, `CNC(=O)c1[nH]c(C(=O)NCC(F)(F)F)cc1O[C@@H](C)c1ccccc1` [Example 54, (S)—N^2-methyl-3-(1-phenylethoxy)-N^5-(2,2,2-trifluoroethyl)-1H-pyrrole-2,5-dicarboxamide] showed an IC50 of at least 10 µM. Besides, the half-life at 1 μM in series [1] (Method 2) is above 60 min. At BRD4 BD2, the IC50 fell in the range of 50 to 200 nM; the Fold selectivity result is “XX (Fold >50 and ≤200)”. In series [2], the “Plasma Stability (% remaining at 120 minutes), Rat” value came out at 93%.

Consider `CCNC(=O)c1cc(OC(C)c2ccc(Br)cc2)c(C(=O)NC)[nH]1` (single isomer, unassigned) [Example 49, 3-(1-(4-bromophenyl)ethoxy)-N^5-ethyl-N^2-methyl-1H-pyrrole-2,5-dicarboxamide], for which the IC50 at BRD4 BD1 was at least 10 µM. Besides, the half-life at 1 μM in series [1] (Method 2) was above 60 min. On BRD4 BD2, the half-inhibitory concentration (IC50) is below 50 nM and the Fold selectivity entry is “XXX (Fold >200)”. In series [2], the “Plasma Stability (% remaining at 120 minutes), Rat” value is on record as 90%.
